Assay results published in PMC7582905, “Effect of Disulfide Cyclization of Ultrashort Cationic Lipopeptides on Antimicrobial Activity and Cytotoxicity” (International Journal of Molecular Sciences, 2020).
In brackets after ≈: the same amount, converted by molar mass. Read-outs that look alike come from different tables or passages of the source. Where a SMILES comes first, the peptide text is derived from it. Bridges are numbered along the chain shown (N, C = ends). The star is where a group is joined. Palmitoyl = CCCCCCCCCCCCCCCC(=O)*

Legend:
Assay type in all cases: cell-based
[1] = tested on: Candida lipolytica PCM 2680-FY; conditions: 24 h
Protocol: (§1) The Staphylococcus aureus ATCC 25923, Staphylococcus epidermidis ATCC 14990, Escherichia coli ATCC 25922, Pseudomonas aeruginosa ATCC 9027, Candida albicans ATCC 10231, Candida glabrata ATCC 15126, Candida lipolytica PCM 2680-FY, and Candida tropicalis PCM 2709-FY strains were acquired from the Polish Collection of Microorganisms (PCM, Polish Academy of Sciences, Wrocław, Poland) and from the American Type Culture Collection (ATCC). All the strains were stored at −80 °C in Roti-Store cryo vials and before the tests were transferred into fresh Mueller–Hinton broth (MHB, Biocorp, Warsaw, Poland) for bacteria or RPMI-1640 (Sigma-Aldrich, Steinheim, Germany) for fungi and incubated for 24 h at 37 °C. Then, the cultures were seeded on Mueller–Hinton agar (BioMaxima, Lublin, Poland) or Sabouraud dextrose agar (SDA, BioMaxima, Lublin, Poland) plates, respectively, and incubated as just mentioned. These agar cultures were used for further microbiological assays. Cell densities for all assays were adjusted spectrophotometrically (Multiskan GO Microplate Spectrophotometer, Thermo Fisher Scientific, Vantaa, Finland) at 600 and 660 nm for bacteria and fungi, respectively.
(§2) The MICs were determined by broth microdilution method according to the Clinical and Laboratory Standard Institute guidelines For this purpose, initial inoculums of bacteria (5 × 10^5 CFU/mL) in MHB and yeasts (2 × 10^3 CFU/mL) in RPMI-1640 with 2% D-glucose were exposed to the ranging concentration of lipopeptides (0.5–256 μg/mL) and incubated at 37 °C for 18 h and 24 h, respectively. The experiments were conducted on 96-well microtiter polystyrene plates. The growth was assessed visually after incubation and the MIC was assumed as the lowest peptide concentration at which a noticeable growth of microorganisms was inhibited. All experiments were conducted in triplicate.

[2] = tested on: Candida albicans ATCC 10231
Protocol: as §1, §2

[3] = tested on: Candida tropicalis PCM 2709-FY; conditions: 24 h
Protocol: as §1, §2

[4] = tested on: Candida glabrata ATCC 15126
Protocol: as §1, §2

[5] = tested on: Escherichia coli ATCC 25922
Protocol: as §1, §2

[6] = tested on: Pseudomonas aeruginosa ATCC 9027
Protocol: as §1, §2

[7] = tested on: Staphylococcus epidermidis ATCC 14990
Protocol: as §1, §2

[8] = tested on: human cervical adenocarcinoma cell line (HeLa S3); test: MTT assay; conditions: 24 h incubation at 37 °C, six replicates per concentration, repeated at least twice
Protocol: (§3) To assess the cytotoxicity of the test lipopeptides (IC50), the classic MTT assay on 96-well polystyrene plates was performed for human keratinocytes (HaCaT) and human cervical adenocarcinoma cell line (HeLa S3) acquired from the ATCC. The assay utilizes colorimetric determination of the cell metabolic activity and the color intensity reflects the number of live cells that can be measured spectrophotometrically. The cell line was cultured in a Dulbecco’s modified Eagle Medium (Invitrogen) supplemented with 10% fetal bovine serum (v/v), 100 units/mL of penicillin, 100 μg/mL of streptomycin, and 2 mM l-glutamine and was stored at 37 °C in a humidified 5% CO2 incubator. Briefly, a day after plating of 500 cells per well, a series of concentrations (0.1–200 μg/mL) of the test compounds were applied. DMSO was added to the control cells at a final concentration of 1.0% (v/v), which was related to the maximal concentration of the solvent compounds used in the experiment. After 24 h of incubation with the lipopeptides at 37 °C in a humidified 5% CO2 incubator, a medium containing 1 mg/mL of MTT (3-(4,5-dimethylthiazol-2-yl)-2,5-diphenyltetrazolium bromide) was added to the wells up to a final concentration of 0.5 mg/mL. Subsequently, the plates were incubated at 37 °C for 4 h. Then, the medium was removed by suction, and the formazan product was solubilized with DMSO. The background absorbance at 630 nm was subtracted from that at 570 nm for each well (Epoch, BioTek Instruments, Winooski, VT, USA). Six replicates were conducted for each concentration. All experiments were repeated at least twice and the resulting IC50 values were calculated with a GraFit 7 software (v. 7.0, Erithacus, Berkley, CA, USA).

[9] = tested on: human keratinocytes (HaCaT); test: MTT assay; conditions: 24 h incubation at 37 °C, six replicates per concentration, repeated at least twice
Protocol: as §3

[10] = tested on: Candida lipolytica PCM 2680-FY
Protocol: as §1
(§4) MBECs were determined on 96-well polystyrene flat-bottom plates. For this purpose, 24 h cultures of microorganisms were diluted to obtain final density 5.0 × 10^5 CFU/mL and 2.0 × 10^5 CFU/mL of bacteria and fungi, respectively. Briefly, 100 µL of cell suspension was added into the test plates. After 24 h of incubation at 37 °C the wells were rinsed three times with a phosphate buffer saline (PBS, pH 7.4) to remove non-adherent cells. Subsequently, 100 μL of the test compounds in concentration range (0.5–256 μg/mL) were added to each well. After 24 h of incubation at 37 °C, 20 μL of a cell viability reagent was added (resazurin, 4 g/L; Sigma Aldrich, St. Louis, MO, USA). The MBEC was read after 1 h. The determined values were recorded as the lowest concentration at which the reduction of resazurin (from blue to pink) was lower or equal to 10 ± 0.5% as compared to the positive (100%) and negative (0%) controls. The reduction was monitored by measuring absorbance at 570 nm (reduced) and 600 nm (oxidized) using a microplate spectrophotometer (Multiskan GO Microplate Spectrophotometer, Thermo Fisher Scientific, Vantaa, Finland). All experiments were conducted in triplicate.

[11] = tested on: Candida albicans ATCC 10231; remark: listed apart in the source
Protocol: as §1, §4

[12] = tested on: Candida tropicalis PCM 2709-FY
Protocol: as §1, §4

[13] = tested on: Candida glabrata ATCC 15126; remark: listed apart in the source
Protocol: as §1, §4

[14] = tested on: Escherichia coli ATCC 25922; remark: listed apart in the source
Protocol: as §1, §4

[15] = tested on: Pseudomonas aeruginosa ATCC 9027; remark: listed apart in the source
Protocol: as §1, §4

[16] = tested on: Staphylococcus epidermidis ATCC 14990; remark: listed apart in the source
Protocol: as §1, §4

[17] = broth microdilution (CLSI), RPMI-1640 with 2% D-glucose, 2 × 10^3 CFU/mL, 37 °C, visual, triplicate
[18] = broth microdilution (CLSI), RPMI-1640 with 2% D-glucose, 2 × 10^3 CFU/mL, 37 °C, 24 h, visual, triplicate
[19] = broth microdilution (CLSI), MHB, 5 × 10^5 CFU/mL, 37 °C, 18 h, visual, triplicate
[20] = 24 h biofilm on polystyrene plates, 24 h exposure at 37 °C, resazurin, triplicate

Structure (SMILES)	MIC C. lipolytica [1] [µg/mL]	MIC C. albicans ([2]; ATCC 10231, 24 h) [µg/mL]	MIC C. tropicalis ([3]; PCM 2709-FY) [µg/mL]	MIC C. glabrata ([4]; ATCC 15126, 24 h) [µg/mL]	MIC E. coli ([5]; ATCC 25922, 18 h) [µg/mL]	MIC P. aeruginosa ([6]; ATCC 9027, 18 h) [µg/mL]	MIC S. epidermidis ([7]; ATCC 14990, 18 h) [µg/mL]	HeLa IC50 [8] [µg/mL]	HaCaT IC50 [9] [µg/mL]	MBEC C. lipolytica ([10]; 24 h) [µg/mL]	MBEC C. albicans ([11]; ATCC 10231, 24 h) [µg/mL]	MBEC C. tropicalis ([12]; PCM 2709-FY, 24 h) [µg/mL]	MBEC C. glabrata ([13]; ATCC 15126, 24 h) [µg/mL]	MBEC E. coli ([14]; ATCC 25922, 24 h) [µg/mL]	MBEC P. aeruginosa ([15]; ATCC 9027, 24 h) [µg/mL]	MBEC S. epidermidis ([16]; ATCC 14990, 24 h) [µg/mL]	other results
CCCCCCCCCCCCCCCC(=O)N[C@H]1CSSC[C@@H](C(N)=O)NC(=O)[C@H](CCCCN)NC(=O)[C@H](CCCCN)NC(=O)[C@H](CCCCN)NC1=O [C1, C16-CKKKC-NH2] (Palmitoyl-CKKKC-NH2; disulfide 1-5)	4 (≈ 4.74 µM)	8 (≈ 9.48 µM)	4 (≈ 4.74 µM)	4 (≈ 4.74 µM)	16 (≈ 19 µM)	256 (≈ 303 µM)	4 (≈ 4.74 µM)	25.5 ± 2.9	23.6 ± 6.0	64	256	128	256	256	256	32	–
CCCCCCCCCCCCCCCC(=O)N[C@H]1CSSC[C@@H](C(N)=O)NC(=O)[C@H](CCCCN)NC(=O)[C@H](CCCCN)NC(=O)[C@H](CCCCN)NC(=O)[C@H](CCCCN)NC1=O [C2, C16-CKKKKC-NH2] (Palmitoyl-CKKKKC-NH2; disulfide 1-6)	–	–	–	–	–	–	–	17.9 ± 2.1	26.9 ± 1.9	–	–	–	–	–	–	–	MIC C. lipolytica [1, 17]: 2 µg/mL (≈ 2.06 µM); MIC C. albicans [2, 18]: 4 µg/mL (≈ 4.11 µM); MIC C. tropicalis [3, 17]: 2 µg/mL (≈ 2.06 µM); MIC C. glabrata [4, 18]: 4 µg/mL (≈ 4.11 µM); MIC E. coli [5, 19]: 64 µg/mL (≈ 65.8 µM); MIC P. aeruginosa [6, 19]: 32 µg/mL (≈ 32.9 µM); MIC S. epidermidis [7, 19]: 8 µg/mL (≈ 8.23 µM); MBEC C. lipolytica [10, 20]: 16 µg/mL; MBEC C. albicans [11, 20]: 64 µg/mL; MBEC C. tropicalis [12, 20]: 32 µg/mL; MBEC C. glabrata [13, 20]: 64 µg/mL; MBEC E. coli [14, 20]: 64 µg/mL; MBEC P. aeruginosa [15, 20]: > 256 µg/mL; MBEC S. epidermidis [16, 20]: 32 µg/mL
CCCCCCCCCCCCCCCC(=O)N[C@H]1CSSC[C@@H](C(N)=O)NC(=O)[C@H](CCCCN)NC(=O)[C@H](CCCCN)NC(=O)[C@H](CCCCN)NC(=O)[C@H](CCCNC(=N)N)NC1=O [C3, C16-CRKKKC-NH2] (Palmitoyl-CRKKKC-NH2; disulfide 1-6)	4 (≈ 4 µM)	2 (≈ 2 µM)	2 (≈ 2 µM)	8 (≈ 8 µM)	16 (≈ 16 µM)	–	8 (≈ 8 µM)	38.8 ± 4.4	36.8 ± 2.7	16	32	32	32	256	256	128	–
CCCCCCCCCCCCCCCC(=O)N[C@H]1CSSC[C@@H](C(N)=O)NC(=O)[C@H](CCCCN)NC(=O)[C@H](CCCCN)NC(=O)[C@H](CCCNC(=N)N)NC(=O)[C@H](CCCCN)NC1=O [C4, C16-CKRKKC-NH2] (Palmitoyl-CKRKKC-NH2; disulfide 1-6)	1 (≈ 1 µM)	2 (≈ 2 µM)	2 (≈ 2 µM)	4 (≈ 4 µM)	32 (≈ 32 µM)	256 (≈ 256 µM)	8 (≈ 8 µM)	27.5 ± 3.4	33.8 ± 3.1	16	32	32	64	64	>256	32	–
CCCCCCCCCCCCCCCC(=O)N[C@H]1CSSC[C@@H](C(N)=O)NC(=O)[C@H](CCCCN)NC(=O)[C@H](CCCNC(=N)N)NC(=O)[C@H](CCCCN)NC(=O)[C@H](CCCCN)NC1=O [C5, C16-CKKRKC-NH2] (Palmitoyl-CKKRKC-NH2; disulfide 1-6)	4 (≈ 4 µM)	16 (≈ 16 µM)	4 (≈ 4 µM)	8 (≈ 8 µM)	16 (≈ 16 µM)	256 (≈ 256 µM)	4 (≈ 4 µM)	21.9 ± 4.5	12.9 ± 4.6	16	64	32	64	128	256	64	–
CCCCCCCCCCCCCCCC(=O)N[C@H]1CSSC[C@@H](C(N)=O)NC(=O)[C@H](CCCNC(=N)N)NC(=O)[C@H](CCCCN)NC(=O)[C@H](CCCCN)NC(=O)[C@H](CCCCN)NC1=O [C6, C16-CKKKRC-NH2] (Palmitoyl-CKKKRC-NH2; disulfide 1-6)	2 (≈ 2 µM)	4 (≈ 4 µM)	2 (≈ 2 µM)	4 (≈ 4 µM)	32 (≈ 32 µM)	128 (≈ 128 µM)	8 (≈ 8 µM)	30.4 ± 2.5	45.7 ± 13.5	16	64	32	64	>256	>256	128	–
